Test results as given in patent US20250002472A1, “PYRIDYL-CONTAINING COMPOUND” (CHIA TAI TIANQING PHARMACEUTICAL GROUP CO., LTD., priority 2021, published 2025).

What was measured:
[1] = In vitro liver microsomal stability, human; format: in vitro ADME; conditions: human liver microsomes 0.5 mg/mL, NADPH, 37° C.
Experimental: (§1) Liver microsome incubation samples were prepared by mixing a PBS buffer (pH=7.4), a liver microsome solution (0.5 mg/mL), a test compound, and an NADPH+MgCl2 solution, and incubated at 37° C. and 300 rpm for 1 h. Zero-hour samples were prepared by mixing a PBS buffer (pH=7.4), a liver microsome solution (0.5 mg/mL), and a test compound. An acetonitrile solution containing an internal standard was added to the samples, and supernatants were prepared by protein precipitation, diluted, and then assayed by LC/MS/MS.

[2] = In vitro liver microsomal stability, mouse; format: in vitro ADME; conditions: mouse liver microsomes 0.5 mg/mL, NADPH, 37° C.
Experimental: as §1

[3] = tested on: OCI-LY10 human diffuse large B-cell lymphoma NOD-SCID mouse subcutaneous xenograft tumor; experiment: Efficacy evaluation in OCI-LY10 NOD-SCID mouse subcutaneous xenograft tumor model; format: in vivo, NOD-SCID mice
Text: Efficacy evaluation in OCI-LY10 human diffuse large B-cell lymphoma NOD-SCID mouse subcutaneous xenograft tumor model
(1) SPF female NOD-SCID mice (source: Jiangsu Huachuang Xinnuo Pharmaceutical Technology Co., Ltd.) were inoculated subcutaneously at the right side armpit with OCI-LY10 human diffuse large B-cell lymphoma cells at 1×10^7 cells/mouse. When the mean tumor volume reached about 200 mm^3, the animals were divided into a control group (vehicle control group) and treatment groups (compound groups).
The administration dose included 1 mg/kg, 2 mg/kg, and 4 mg/kg, and the administration frequency was once daily. The day of grouping was defined as day 0, and intragastric administration was started on day 0 for 21 consecutive days.
Alternatively, the administration dose was 4 mg/kg, and the administration frequency was 5 times per week. The day of grouping was defined as day 0, and intragastric administration was started on day 0 five times per week for two consecutive weeks.
The tumor volume was measured once every 3 days, and meanwhile, the mice were weighed and the data were recorded; the general behavior of the mice was observed and recorded every day. After the experiment was completed, the tumors were removed, weighed, and photographed.
The detection index and the calculation formula are as follows:
Tumor volume TV (mm^3)=½×(a×b^2), wherein a is the long diameter of the tumor, and b is the short diameter of the tumor; • Relative tumor volume RTV=TVt/TV0, wherein TV0 is the tumor volume on day 0, and TVt is the tumor volume at each measurement; • Relative tumor proliferation rate T/C (%)=(TRTV/CRTV)×100%, wherein TRTV is RTV of the treatment group, and CRTV is RTV of the vehicle control group; • Tumor growth inhibition rate TGI (%)=(1−TW/TW0)×100%; wherein TW is the tumor weight of the treatment group, and TW0 is the tumor weight of the vehicle control group; • Weight change rate WCR (%)=(Wtt−Wt0)/Wt0×100%, wherein Wt0 is the body weight of the mouse on day 0, and Wtt is the body weight of the mouse at each measurement.

Mouse pharmacokinetics = format: in vivo; conditions: ICR, plasma, po, 3 mg/kg, mice, intragastric 3 mpk vs intravenous 1 mpk, read-out: Absolute bioavailability F (%)
Experimental: ICR mice weighing 18-22 g were randomized into groups of 9 mice per group after 3-5 days of acclimatization and then administered intragastrically at a dose of 3 mg/kg.
Plasma samples to be tested were prepared by taking blood from the orbit at time points of 15 min, 30 min, 1 h, 2 h, 4 h, 6 h, 8 h, 10 h, and 24 h.
20 μL of each plasma sample to be tested and a standard curve sample were taken, and an acetonitrile solution containing an internal standard was added. A supernatant was obtained by protein precipitation, diluted, and then assayed by LC/MS/MS.
Pharmacokinetic parameters were fitted using a non-compartmental model.

SMILES | Human liver microsome Residuals at 60 min (%) [1] [%] | Mouse liver microsome Residuals at 60 min (%) [2] [%] | further results
NC(=O)/C(=C/n1cnc(-c2cc(C(F)(F)F)nc(C(F)(F)F)c2)n1)c1cnc(NCC(F)(F)F)nc1 [Compound 4] | 100.33 | 93.27 | 
C[C@@H](Nc1ncc(/C(=C\n2cnc(-c3cc(C4CC4)nc(C(F)(F)F)c3)n2)C(N)=O)cn1)C(F)(F)F [Compound 17] | 93.92 | 95.11 | 
NC(=O)/C(=C/n1cnc(-c2cc(C(F)(F)F)nc(C(F)(F)F)c2)n1)c1cnc2cccnc2c1 [Compound 25] |  |  | Weight change rate (%) (mean ± SD) ([3]; Table 4, 4 mg/kg intragastric, Day 21 of assay): 1.7 ± 5.3%
CC(F)(F)CNc1ncc(/C(=C\n2cnc(-c3cc(C4CC4)nc(C(F)(F)F)c3)n2)C(N)=O)cn1 [Compound 15] |  |  | bioavailability (Mouse pharmacokinetics): 94.8%
Cc1ccc(/C(=C\n2cnc(-c3cc(C(F)(F)F)nc(C(F)(F)F)c3)n2)C(N)=O)cn1 [Compound 21] |  |  | Weight change rate (%) (mean ± SD) ([3]; Table 4, 2 mg/kg intragastric, Day 21 of assay): −2.0 ± 6.5%; bioavailability (Mouse pharmacokinetics): 97.3%
NC(=O)/C(=C/n1cnc(-c2cc(C3CC3)nc(C(F)(F)F)c2)n1)c1cnc(NCC(F)F)nc1 [Compound 14] | 80.48 | 83.14 | 
NC(=O)/C(=C/n1cnc(-c2cc(C3CC3)nc(C(F)(F)F)c2)n1)c1ccc(F)nc1 [Compound 39] | 106.91 | 89.18 | 
NC(=O)/C(=C/n1cnc(-c2cc(C(F)(F)F)nc(C(F)(F)F)c2)n1)c1cncc(F)c1 [Compound 8] | 101.7 | 98.98 | 
CC(F)(F)CNc1ncc(/C(=C\n2cnc(-c3cc(C(F)(F)F)nc(C(F)(F)F)c3)n2)C(N)=O)cn1 [Compound 3] |  |  | bioavailability (Mouse pharmacokinetics): 114%
COc1ccc(/C(=C\n2cnc(-c3cc(C4CC4)nc(C(F)(F)F)c3)n2)C(N)=O)cn1 [Compound 34] | 101.21 | 87.79 | 
C[C@@H](Nc1ncc(/C(=C\n2cnc(-c3cc(C(F)(F)F)nc(C(F)(F)F)c3)n2)C(N)=O)cn1)C(F)(F)F [Compound 5] | 97.64 | 99.03 | 
NC(=O)/C(=C/n1cnc(-c2cc(C3CC3)nc(C(F)(F)F)c2)n1)c1cccnc1F [Compound 32] | 100.32 | 95.08 | 
NC(=O)/C(=C/n1cnc(-c2cc(C(F)(F)F)nc(C(F)(F)F)c2)n1)c1cnc2ccccc2c1 [Compound 11] |  |  | Weight change rate (%) (mean ± SD) ([3]; Table 5, 4 mg/kg intragastric, Day 18 of assay): 0.6 ± 8.1%
N#Cc1cncc(/C(=C\n2cnc(-c3cc(C4CC4)nc(C(F)(F)F)c3)n2)C(N)=O)c1 [Compound 30] | 98.75 | 89.94 | 
NC(=O)/C(=C/n1cnc(-c2cc(C3CC3)nc(C(F)(F)F)c2)n1)c1cncc(F)c1 [Compound 27] | 102.54 | 94.24 | 
N#Cc1cncc(/C(=C\n2cnc(-c3cc(C(F)(F)F)nc(C(F)(F)F)c3)n2)C(N)=O)c1 [Compound 10] | 95.75 | 93.99 | 
NC(=O)/C(=C/n1cnc(-c2cc(C(F)(F)F)nc(C(F)(F)F)c2)n1)c1cnc(NCC(F)F)nc1 [Compound 2] |  |  | bioavailability (Mouse pharmacokinetics): 104%
NC(=O)/C(=C/n1cnc(-c2cc(C3CC3)nc(C(F)(F)F)c2)n1)c1cncnc1 [Compound 13] | 93.23 | 91.15 | 
NC(=O)/C(=C/n1cnc(-c2cc(C3CC3)nc(C(F)(F)F)c2)n1)c1cnc(NCC(F)(F)F)nc1 [Compound 16] | 88.75 | 90.60 | 
NC(=O)/C(=C/n1cnc(-c2cc(C3CC3)nc(C(F)(F)F)c2)n1)c1cnc2ccccc2c1 [Compound 26] | 96.64 | 90.27 | 
NC(=O)/C(=C/n1cnc(-c2cc(C3CC3)nc(C(F)(F)F)c2)n1)c1cnc2cccnc2c1 [Compound 33] | 104.79 | 98.21 | 
Cc1ccc(/C(=C\n2cnc(-c3cc(C4CC4)nc(C(F)(F)F)c3)n2)C(N)=O)cn1 [Compound 38] |  |  | bioavailability (Mouse pharmacokinetics): 112%
